In patent US9629822B2, “Flavonoid based antiviral targets” (UNIVERSITY OF CENTRAL FLORIDA RESEARCH FOUNDATION, INC., priority 2012, dated 2017):
Where two headings read alike, the source gives them in different places.

What was measured:
US28 receptor [1] = biological target: T1, US28 receptor (Human cytomegalovirus, UniProt P69332); conditions: same Elk1 reporter assay, from ref 13; cited from earlier work
T1 construct: expressed in transfected cells; host or cells: HEK 293T cells, transiently transfected

HIV-1 BaL = test: Anti-HIV assay (luciferase, HIV-1 BaL infection); assay type: cell-based; conditions: 10 μM, Experiment 1B, 2 ng/mL p24 HIV-1 BaL; for inhibition at 10 µM: Human immunodeficiency virus 1, BAL
Summary of the method: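 Cells infected with HIV-1 BaL at 2 ng/mL p24 (MOI approx 0.02) in compound presence. Infection read out by luciferase.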

[2] = system: mock transfected 293T HEK cells; test: PathDetect Elk1 luminescence in mock transfected (empty pcDNA3 vector) 293T HEK cells, off-target effect; assay type: cell-based, human; conditions: 10 μM vs 1% DMSO control, Equation 1; for activation at 10 µM: Homo sapiens, read-out: Effect(%) on mock cells with each drug at 10 μM
Summary of the method: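 HEK 293T cells were transiently transfected with PathDetect Elk1/luciferase and empty pcDNA3, then exposed to 10 μM compound in medium with 1% FBS and 1% DMSO for 20-24 h at 37 °C. BrightGlo luminescence was compared with the 1% DMSO control: % effect = 100%×(mock/DMSO) − 100%.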

[3] = TZMbI assay for cell safety (cell viability and growth, CytoTox Glo); conditions: human, TZMbI cells, 10 μM, Experiment 1A; read-out: % decrease in viability compared to 0.1% DMSO vehicle based on viable cell luminescence
Procedure: Assays were performed below in accordance with the procedures set forth in The Journal of Immunology, 2006, 176, pp. 6900-905; AIDS Research and Human Retroviruses, 2004, 20:11, pp. 1157-1665.^32,33 TZMbI assays for cell safety were performed to identify potential anti-viral compounds. TZMbI assays for cell safety were performed to identify potential anti-viral compounds per the methods.

CHO cells = test: CHO cell toxicity, MTS assay, 48 h; assay type: cell-based, Chinese hamster; conditions: Cricetulus griseus, CHO, 37° C., MTS reagent, read-out: CHO 48 h IC50 value
Summary of the method: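 CHO cells plated at 10,000 cells/mL, incubated overnight, then exposed to drug (final DMSO <1%) for 48 h at 37 °C, 5% CO2, in triplicate. MTS added for a further 4 h; absorbance read at 490 nm. IC50 taken from relative A490 versus drug concentration.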

US28 receptor [4] = biological target: T1, US28 receptor; test: PathDetect trans Elk1 luciferase reporter gene assay in US28-transfected 293T HEK cells; assay type: cell-based, Human Cytomegalovirus (HCMV); conditions: for type of activity on the US28 receptor (agonist / inverse agonist / none), in words: Elk1 reporter, US28-transfected HEK cells; for EC50: 293T HEK cells transiently expressing US28, Elk1 reporter, NE = no effect when tested at 10 μM of compound; for Emax: read-out: Efficacy(%), maximum intrinsic activity from dose-response curve
Summary of the method: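 HEK293T cells transiently transfected with Elk1, Luc and US28 vector (empty pcDNA3 for mock) were dosed with compounds in DMEM/1% FBS with 1% DMSO for 20-24 h at 37° C. Bright-Glo luminescence decrease was read; EC50 is halfway between maximal response and no-compound control, by non-linear regression.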

T1 sequence (P69332 whole entry): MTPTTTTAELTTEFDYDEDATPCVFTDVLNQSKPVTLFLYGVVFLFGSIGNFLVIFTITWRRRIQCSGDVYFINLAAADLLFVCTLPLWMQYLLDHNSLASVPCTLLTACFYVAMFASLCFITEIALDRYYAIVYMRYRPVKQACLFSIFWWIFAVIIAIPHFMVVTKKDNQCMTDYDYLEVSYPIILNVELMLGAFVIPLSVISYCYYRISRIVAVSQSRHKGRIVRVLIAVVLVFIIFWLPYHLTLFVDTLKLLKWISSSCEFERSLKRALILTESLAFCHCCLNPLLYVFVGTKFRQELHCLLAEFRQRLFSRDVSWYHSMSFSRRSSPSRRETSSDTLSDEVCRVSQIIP

SMILES | EC50 (US28 receptor [1]) | efficacy (US28 receptor [1]) | RLU (relative luciferase units) (HIV-1 BaL) | inhibition at 10 µM (HIV-1 BaL) | activation at 10 µM [2] | melting point | cytotoxicity at 10 μM [3] | IC50 (CHO cells) | type of activity on the US28 receptor (agonist / inverse agonist / none), in words (US28 receptor [4]) | Emax at 10 µM (US28 receptor [4]; read-out: Efficacy(%), 10 μM single concentration) | Effect(%) on mock cells with each drug at 10 μM [2] | EC50 (US28 receptor [4]; EC50 (μM)) | Emax (US28 receptor [4]; negative = inverse agonism) | EC50 (US28 receptor [4]) | Efficacy(%) (US28 receptor [4]; maximum intrinsic activity from dose-response curve, negative = inverse agonism)
N#CC(CCCN1CCC(O)(c2ccc(Cl)cc2)CC1)(c1ccccc1)c1ccccc1 [Compound 5a, VUF2274] | 4.5 µM | ~22% |  |  |  |  |  |  |  |  |  |  |  |  | 
COc1ccc(C)cc1/C=C/C(=O)c1ccccc1O [Compound 8j, (E)-1-(2-hydroxyphenyl)-3-(2-methoxy-5-methylphenyl)prop-2-en-1-one] |  |  | 345.7 RLU | 63.1% | -4% | 69 to 72 °C | 47% | 14.2 ± 2.7 µM | agonist activity | 52% |  |  |  |  | 
COc1ccc(C)cc1-c1oc2ccccc2c(=O)c1O [Compound 9j, 3-hydroxy-2-(2-methoxy-5-methylphenyl)-4H-chromen-4-one] |  |  | 814.0 RLU | 13% | 0% | 158 to 164 °C | 4.8% | 54.6 ± 4.2 µM | inhibited US28 receptor constitutive activity |  | 0% | 1.78 µM | -38% |  | 
COc1ccc(Br)cc1-c1oc2cccc(OC)c2c(=O)c1O [Compound 9f, 2-(5-Bromo-2-methoxyphenyl)-3-hydroxy-5-methoxy-4H-chromen-4-one] |  |  | 528.5 RLU | 43.6% | -1% | 207 to 213 °C | -0.2% | 17.3 ± 1.9 µM |  |  |  |  |  | > 10 µM | 
COc1cc(OC)c(/C=C/C(=O)c2ccccc2O)cc1Br [Compound 8e, (E)-3-(5-bromo-2,4-dimethoxyphenyl)-1-(2-hydroxyphenyl)prop-2-en-1-one] |  |  | 671.4 RLU | 29% | 5% | 153 to 157 °C | 4.1% | 16.9 ± 1.3 µM |  |  |  | 4.9 µM | ~55% |  | 
COc1ccc(I)cc1/C=C/C(=O)c1ccccc1O [Compound 8g, (E)-1-(2-hydroxyphenyl)-3-(5-iodo-2-methoxyphenyl)prop-2-en-1-one] |  |  | 3.3 RLU | 99.6% | 100% | 107 to 109 °C | 99.7% | 6.7 ± 0.7 µM |  |  | 100% | 5.5 µM | ~94% |  | ~94%
